Test results from the supplement of paper PMC11061612.

Tests used:
Assay in all cases: Bliss excess, mean over the matrix (fraction); higher = more synergy
[1] = tested on: CADO-ES1 (Ewing's Sarcoma)
How it was run: (§1)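 Cell lines grown in DMEM/F12 or RPMI with 10% FBS were plated in 1536-well plates and held 24 hours at 37°C, 5% CO2 before 72 hours of exposure to two-drug dose matrices, with DMSO typically at 0.2%. CellTiter-Glo 2.0 luminescence gave viability, which was converted to inhibition. Vehicle wells were set to 0 and blank wells to 1. Combination Emax is the second-highest inhibition in the matrix, and Bliss excess is the observed combination effect minus the expected EA + EB − EA·EB, where EA and EB are the single-agent effects.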

[2] = tested on: G-401 (Other Solid Carcinomas)
How it was run: as §1

[3] = tested on: SW982 (Other Solid Carcinomas)
How it was run: as §1

[4] = tested on: HAL-01 (B-Lymphoblastic Leukemia)
How it was run: as §1

[5] = tested on: NCI-H650 (Lung Adenocarcinoma)
How it was run: as §1

[6] = tested on: MV-4-11 (Acute Myeloid Leukemia)
How it was run: as §1

[7] = tested on: EFO-21 (Ovarian Carcinoma)
How it was run: as §1

[8] = tested on: NCI-H1838 (Lung Adenocarcinoma)
How it was run: as §1

[9] = tested on: NCI-H1355 (Lung Adenocarcinoma)
How it was run: as §1

[10] = tested on: HCC1937 (Breast Carcinoma)
How it was run: as §1

[11] = tested on: ML-2 (Acute Myeloid Leukemia)
How it was run: as §1

[12] = tested on: SNU-387 (Hepatocellular Carcinoma)
How it was run: as §1

[13] = tested on: KOPN-8 (B-Lymphoblastic Leukemia)
How it was run: as §1

[14] = tested on: KMRC-1 (Kidney Carcinoma)
How it was run: as §1

[15] = tested on: OACM5-1 (Esophageal Adenocarcinoma)
How it was run: as §1

[16] = tested on: LC-1-sq (Squamous Cell Lung Carcinoma)
How it was run: as §1

[17] = tested on: ME-180 (Cervical Carcinoma)
How it was run: as §1

[18] = tested on: NCI-H1993 (Lung Adenocarcinoma)
How it was run: as §1

[19] = tested on: COLO-668 (Small Cell Lung Carcinoma)
How it was run: as §1

[20] = tested on: MOLT-4 (T-Lymphoblastic Leukemia)
How it was run: as §1

SMILES	Bliss excess [1]	Bliss excess [2]	Bliss excess [3]	Bliss excess [4]	Bliss excess [5]	Bliss excess [6]	Bliss excess [7]	Bliss excess [8]	Bliss excess [9]	Bliss excess [10]	Bliss excess [11]	Bliss excess [12]	Bliss excess [13]	Bliss excess [14]	Bliss excess [15]	Bliss excess [16]	Bliss excess [17]	Bliss excess [18]	Bliss excess [19]	Bliss excess [20]
C=CCn1c(=O)c2cnc(Nc3ccc(N4CCN(C)CC4)cc3)nc2n1-c1cccc(C(C)(C)O)n1 [AZD1775] + O=C(c1cc(Cc2n[nH]c(=O)c3ccccc23)ccc1F)N1CCN(C(=O)C2CC2)CC1 [Olaparib] (first compound max 1 µM, partner max 10 µM)	0.0402	-0.0999	-0.102	-0.0542	-0.0532	0.0445	-0.0266	-0.0774	-0.0671	-0.0813	0.0099	-0.075	-0.016	-0.0224	-0.0363	-0.0216	-0.0244	-0.0631	0.0104	0.0101
Cc1c2c(nn1C)CSCc1cc(n(C)n1)CSc1cc(c3ccccc3c1)OCCCc1c(C(=O)O)n(C)c3c-2c(Cl)ccc13 [AZD5991] + CN(C)CCCOc1ccc(-c2ccc3ncc4c(c3c2)n(C2CCOCC2)c(=O)n4C)cn1 [AZD0156] (first compound max 1 µM, 7x7, partner max 1 µM)	-0.0098	0.0014	-0.0485	-0.0246	0.0527	-0.0395	-0.0062	0.043	-0.0298	0.0106	-0.0149	-0.0536	-0.118	-0.0412	-0.0029	0.0103	0.0231	-0.0369	0.0135	-0.0058
CN(CCO)CC[C@H](CSc1ccccc1)Nc1ccc(S(=O)(=O)NC(=O)c2ccc(N3CCC([C@@H](O)c4ccccc4-c4ccc(Cl)cc4)CC3)cc2)cc1S(=O)(=O)C(F)(F)F [AZD4320] + CN(C)CCCOc1ccc(-c2ccc3ncc4c(c3c2)n(C2CCOCC2)c(=O)n4C)cn1 [AZD0156] (first compound max 1 µM, 7x7, partner max 1 µM)	0.0269	-0.0506	-0.0487	0.024	-0.0182	-0.034	-0.0579	0.0135	-0.0888	0.0007	-0.0056	-0.0208	-0.052	-0.0245	-0.0016	0.0065	-0.0339	-0.0734	0.0435	0.0052
COc1cccc(OCCCN)c1-c1cc(Nc2cnc(C#N)cn2)n[nH]1 [Prexasertib] + C[C@@H]1COCCN1C2=NC(=NC(=C2)C3(CC3)[S@](=N)(=O)C)C4=C5C=CNC5=NC=C4 [AZD6738] (first compound max 1 µM, 7x7, partner max 10 µM)	-0.0348	0.0399	-0.0406	-0.022	-0.0278	-0.0356	-0.02	-0.174	0.0276	-0.0129	-0.0361	0.0035	-0.0539	0.0101	-0.0153	-0.0361	0.0255	-0.0176	0.0269	0.0087
C[C@@H]1COCCN1c1cc(C2([S@](C)(=N)=O)CC2)nc(-c2ccnc3[nH]ccc23)n1 [AZD6738] + O=C(c1cc(Cc2n[nH]c(=O)c3ccccc23)ccc1F)N1CCN(C(=O)C2CC2)CC1 [Olaparib] (first compound max 10 µM, 7x7, partner max 10 µM)	0.03	0.0454	-0.0202	0.003	-0.0227	-0.0566	-0.0375	-0.138	-0.0357	-0.0665	-0.0667	-0.0225	-0.0358	0.0003	0.0071	0.0157	0.0056	0.033	0.0193	0.0556
CCN(CCO)CCCOc1ccc2c(Nc3cc(CC(=O)Nc4cccc(F)c4)[nH]n3)ncnc2c1 [AZD2811] + C=CCn1c(=O)c2cnc(Nc3ccc(N4CCN(C)CC4)cc3)nc2n1-c1cccc(C(C)(C)O)n1 [AZD1775] (first compound max 1 µM, partner max 1 µM)	-0.0086	0.0421	-0.0501	0.0495	0.0178	-0.0626	-0.062	-0.0575	-0.0067	-0.0331	-0.102	-0.0155	0.0507	0.0036	0.0426	0.0025	-0.0356	0.0219	0.0144	0.0151
COc1nnc2ccc(N3CCC(c4ccc(OCCN5CCN(C)C(=O)[C@H]5C)cc4)CC3)nn12 [AZD5153] + CCN(CCO)CCCOc1ccc2c(Nc3cc(CC(=O)Nc4cccc(F)c4)[nH]n3)ncnc2c1 [AZD2811] (first compound max 1 µM, 7x7, partner max 1 µM)	-0.0493	-0.0625	-0.0857	-0.0689	0.0112	-0.0185	-0.0771	-0.0282	0.0143	-0.0581	-0.0355	-0.0837	-0.0341	-0.0437	0.0367	-0.0282	-0.0644	-0.0401	-0.0268	0.0277
CC(=O)Nc1cccc(-n2c(=O)n(C3CC3)c(=O)c3c(Nc4ccc(I)cc4F)n(C)c(=O)c(C)c32)c1 [Trametinib] + Cc1nc(-c2cn3c(n2)-c2ccc(-c4cnn(C(C)(C)C(N)=O)c4)cc2OCC3)n(C(C)C)n1 [Taselisib] (first compound max 1 µM, 7x7, partner max 10 µM)	-0.0253	0.0082	0.0666	0.147	0.136	0.27	0.048	0.0104	0.0292	-0.0125	0.197	0.185	-0.101	0.0072	0.03	0.24	0.0713	0.0556	0.289	0.186
COc1cccc(OCCCN)c1-c1cc(Nc2cnc(C#N)cn2)n[nH]1 [Prexasertib] + Cc1cc2ncnn2cc1Nc1ncc2c(n1)n(C1CCOCC1)c(=O)n2C [AZD7648] (first compound max 1 µM, 7x7, partner max 10 µM)	-0.0261	-0.0221	-0.0355	-0.0257	-0.0389	-0.0083	-0.0446	-0.0126	-0.0405	-0.0594	-0.0357	-0.0434	0.0298	-0.0152	-0.026	0.0099	0.0041	-0.0683	-0.0459	0.0091
CC1(C)CCC(CN2CCN(c3ccc(C(=O)NS(=O)(=O)c4ccc(NCC5CCOCC5)c([N+](=O)[O-])c4)c(Oc4cnc5[nH]ccc5c4)c3)CC2)=C(c2ccc(Cl)cc2)C1 [Venetoclax] + C[C@@H](Nc1cc(F)cc(F)c1)c1cc(C(=O)N(C)C)cc2c(=O)cc(N3CCOCC3)oc12 [AZD8186] (first compound max 1 µM, 7x7, partner max 3 µM)	0.117	-0.0275	-0.0813	0.0246	-0.0257	0.0641	-0.0441	-0.031	-0.0256	-0.0179	-0.0292	-0.0264	-0.0088	-0.0198	0.0321	-0.0254	-0.015	0.0036	0.0418	-0.0204
CC1(C)CCC(CN2CCN(c3ccc(C(=O)NS(=O)(=O)c4ccc(NCC5CCOCC5)c([N+](=O)[O-])c4)c(Oc4cnc5[nH]ccc5c4)c3)CC2)=C(c2ccc(Cl)cc2)C1 [Venetoclax] + CN(C)CCCOc1ccc(-c2ccc3ncc4c(c3c2)n(C2CCOCC2)c(=O)n4C)cn1 [AZD0156] (first compound max 1 µM, 7x7, partner max 1 µM)	-0.0204	-0.0712	-0.086	0.0439	-0.0194	-0.0446	-0.0375	0.0303	-0.0429	-0.0566	-0.0728	-0.028	-0.0498	-0.0466	-0.0017	-0.0007	0.0092	-0.0681	-0.0022	0.0196
COc1nnc2ccc(N3CCC(c4ccc(OCCN5CCN(C)C(=O)[C@H]5C)cc4)CC3)nn12 [AZD5153] + Cc1c2c(nn1C)CSCc1cc(n(C)n1)CSc1cc(c3ccccc3c1)OCCCc1c(C(=O)O)n(C)c3c-2c(Cl)ccc13 [AZD5991] (first compound max 1 µM, 7x7, partner max 1 µM)	0.0176	0.0312	-0.0488	-0.0787	-0.03	-0.0001	-0.0428	-0.0412	-0.0274	-0.0426	0.0582	-0.0082	0.0112	-0.0482	0.0114	0.0198	-0.0435	-0.0106	0.0265	0.0492
CN(C)CCCOc1ccc(-c2ccc3ncc4c(c3c2)n(C2CCOCC2)c(=O)n4C)cn1 [AZD0156] + C=CCn1c(=O)c2cnc(Nc3ccc(N4CCN(C)CC4)cc3)nc2n1-c1cccc(C(C)(C)O)n1 [AZD1775] (first compound max 1 µM, partner max 1 µM)	0.0196	-0.0734	-0.0676	0.053	-0.0593	-0.0306	-0.0369	-0.0296	-0.0472	-0.0734	-0.014	-0.054	-0.0256	-0.0216	-0.051	-0.0248	-0.0787	-0.0699	-0.039	0.0118
NC1(C(=O)N[C@@H](CCO)c2ccc(Cl)cc2)CCN(c2ncnc3[nH]ccc23)CC1 [Capivasertib] + C[C@@H]1COCCN1C2=NC(=NC(=C2)C3(CC3)[S@](=N)(=O)C)C4=C5C=CNC5=NC=C4 [AZD6738] (first compound max 10 µM, 7x7, partner max 10 µM)	-0.0284	-0.0856	-0.0382	-0.0267	-0.0441	-0.0546	-0.0322	-0.0733	-0.0317	-0.0142	-0.0241	-0.0613	-0.0253	-0.0504	0.0338	-0.0984	-0.066	-0.0598	-0.0501	0.0011
